Assay results from the supplement of paper PMC11208160.

assay: recombinant UMI read abundance after kanamycin selection (control-corrected) (log10(CPM+1)); higher = more efficient recombination; extreme values may be limits of the assay; sequences stand for … in AGTGCAGAGAAAATCGGCCAGTTTTCTCTGCCTGCAGTCCGCATGCCGTGGGACCCCTTGGGTTCTAACCTGTTGCCTAGATTTATGCAGCGGACTGCCTTTCTCCCAAAGTGATAAACCGG…AGGTTGGTTTCACT; site = the 11-nt donor
In short: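 Values, expressed as log10(CPM+1), derive from recombinant UMI counts converted to CPM, averaged across replicates and scaled by control-derived factors. Plating was with IPTG (0.07 mM) plus kanamycin or unselected, two replicates each. The screen pooled donor and donor-binding-loop pairs for the IS621 bridge recombinase in Escherichia coli.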
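Also: IS621 bridge recombinase in Escherichia coli cells against a fixed T5 target plasmid.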

Sequence | recombinant UMI read abundance (log10)
TGTGATGCATGGACCGGTTTTCCCGGTAATCCGTATTTGAC (site TGTGATGCTGT) | 1.65
TGTGCTGCATGGACCGGTTTTCCCGGTAATCCGTATTTGTA (site TGTGCTGCTTA) | 0.0197
TGTGGCTCATGGACCGGTTTTCCCGGTAATCCGTATTTGCT (site TGTGGCTCTAG) | 1.33
TGTGTGACATGGACCGGTTTTCCCGGTAATCCGTATTTGTC (site TGTGTGACTGA) | 0
TGTTAACCATGGACCGGTTTTCCCGGTAATCCGTATTTGCT (site TGTTAACCTAG) | 0
TGTTCACCATGGACCGGTTTTCCCGGTAATCCGTATTTGTA (site TGTTCACCTTA) | 0.00651
TGTTCACCATGGACCGGTTTTCCCGGTAATCCGTATTTGTA (site TGTTCCCCTTA) | 0.104
TGTTCACCATGGACCGGTTTTCCCGGTAATCCGTATTTGTA (site TGTTCGCCTTA) | 0.00766
TGTTCACCATGGACCGGTTTTCCCGGTAATCCGTATTTGTA (site TGTTCTCCTTA) | 0.00688
TGTTCCCCATGGACCGGTTTTCCCGGTAATCCGTATTTGAA (site TGTTCCCCTTA) | 0.0134
TGTTCCCCATGGACCGGTTTTCCCGGTAATCCGTATTTGAA (site TGTTCCCCTTC) | 0.011
TGTTCCCCATGGACCGGTTTTCCCGGTAATCCGTATTTGAA (site TGTTCCCCTTG) | 0
TGTTCCCCATGGACCGGTTTTCCCGGTAATCCGTATTTGAA (site TGTTCCCCTTT) | 0.0201
TGTTCCCCATGGACCGGTTTTCCCGGTAATCCGTATTTGGA (site TGTTCCCCTTA) | 0.0182
TGTTCCCCATGGACCGGTTTTCCCGGTAATCCGTATTTGGA (site TGTTCCCCTTC) | 0.128
TGTTCCCCATGGACCGGTTTTCCCGGTAATCCGTATTTGGA (site TGTTCCCCTTG) | 0.00301
TGTTCCCCATGGACCGGTTTTCCCGGTAATCCGTATTTGGA (site TGTTCCCCTTT) | 0.02
TGTTCCCCATGGACCGGTTTTCCCGGTAATCCGTATTTGTC (site TGTTCCCCTAA) | 0.0126
TGTTCCCCATGGACCGGTTTTCCCGGTAATCCGTATTTGTC (site TGTTCCCCTCA) | 0.00896
TGTTCCCCATGGACCGGTTTTCCCGGTAATCCGTATTTGTC (site TGTTCCCCTGA) | 1.16
TGTTCCCCATGGACCGGTTTTCCCGGTAATCCGTATTTGTC (site TGTTCCCCTTA) | 0.0152
TGTTCCTCATGGACCGGTTTTCCCGGTAATCCGTATTTGTC (site TGTTCCTCTGA) | 0.553
TGTTCGGCATGGACCGGTTTTCCCGGTAATCCGTATTTGAC (site TGTTCGGCTGT) | 0.323
TGTTCTTCATGGACCGGTTTTCCCGGTAATCCGTATTTGCC (site TGTTCTTCTGG) | 1.21
TGTTGATCATGGACCGGTTTTCCCGGTAATCCGTATTTGAG (site TGTTGATCTCT) | 1.22

Sequence | recombinant UMI read abundance (log10)
TGTTTGGCATGGACCGGTTTTCCCGGTAATCCGTATTTGTG (site TATTTGGCTCA) | 0.0286
TGTTTGGCATGGACCGGTTTTCCCGGTAATCCGTATTTGTG (site TCTTTGGCTCA) | 0.00613
TGTTTGGCATGGACCGGTTTTCCCGGTAATCCGTATTTGTG (site TGTTTGGCTCA) | 0.161
TGTTTGGCATGGACCGGTTTTCCCGGTAATCCGTATTTGTG (site TTTTTGGCTCA) | 0.0036
TTAAATCCATGGACCGGTTTTCCCGGTAATCCGTATTTGGT (site TTAAATCCTAC) | 0.0199
TTAATACCATGGACCGGTTTTCCCGGTAATCCGTATTTGAG (site TTAATACCTCT) | 0.0468
TTAATTTCATGGACCGGTTTTCCCGGTAATCCGTATTTGCA (site TTAATTTCTTG) | 0.69
TTACGTCCATGGACCGGTTTTCCCGGTAATCCGTATTTGCA (site TTACGTCCTTG) | 0.977
TTACTACCATGGACCGGTTTTCCCGGTAATCCGTATTTGCG (site TTACTACCTCG) | 0.0128
TTAGAACCATGGACCGGTTTTCCCGGTAATCCGTATTTGCA (site TTAGAACCTTG) | 0
TTAGCCGCATGGACCGGTTTTCCCGGTAATCCGTATTTGAC (site TTAGCCGCTGT) | 2.72
TTAGGATCATGGACCGGTTTTCCCGGTAATCCGTATTTGAT (site TTAGGATCTAT) | 2.58
TTAGTTCCATGGACCGGTTTTCCCGGTAATCCGTATTTGTT (site TTAGTTCCTAA) | 0.183
TTAGTTGCATGGACCGGTTTTCCCGGTAATCCGTATTTGTG (site TTAGATGCTCA) | 0.0164
TTAGTTGCATGGACCGGTTTTCCCGGTAATCCGTATTTGTG (site TTAGCTGCTCA) | 0.0133
TTAGTTGCATGGACCGGTTTTCCCGGTAATCCGTATTTGTG (site TTAGGTGCTCA) | 0.0142
TTAGTTGCATGGACCGGTTTTCCCGGTAATCCGTATTTGTG (site TTAGTTGCTCA) | 1.15
TTATAGGCATGGACCGGTTTTCCCGGTAATCCGTATTTGGA (site TTATAGGCTTC) | 0.419
TTATGAGCATGGACCGGTTTTCCCGGTAATCCGTATTTGTC (site TTATGAGCTGA) | 2.45
TTATGTGCATGGACCGGTTTTCCCGGTAATCCGTATTTGCT (site TTATGTGCTAG) | 2.36
TTATTACCATGGACCGGTTTTCCCGGTAATCCGTATTTGAG (site TTATTACCTCT) | 0.00691
TTATTTGCATGGACCGGTTTTCCCGGTAATCCGTATTTGTA (site TTATTTGCTTA) | 0.103
TTCAACTCATGGACCGGTTTTCCCGGTAATCCGTATTTGAC (site TTCAACTCTGT) | 0
TTCAATTCATGGACCGGTTTTCCCGGTAATCCGTATTTGGG (site TTCAATTCTCC) | 0
TTCCACCCATGGACCGGTTTTCCCGGTAATCCGTATTTGTA (site TTCCACCCTTA) | 0.00477

Sequence | recombinant UMI read abundance (log10)
TTCCAGGCATGGACCGGTTTTCCCGGTAATCCGTATTTGAG (site TTCCAGGCTCT) | 0.0112
TTCCCGCCATGGACCGGTTTTCCCGGTAATCCGTATTTGAA (site TTCCCGCCTTT) | 0.0206
TTCCCTTCATGGACCGGTTTTCCCGGTAATCCGTATTTGTA (site TTCCCTTCTTA) | 0
TTCCGAACATGGACCGGTTTTCCCGGTAATCCGTATTTGGT (site TTCCGAACTAC) | 0.00692
TTCCTGGCATGGACCGGTTTTCCCGGTAATCCGTATTTGAG (site TTCCTGGCTCT) | 0.00387
TTCCTGTCATGGACCGGTTTTCCCGGTAATCCGTATTTGAA (site TTCCTGTCTTT) | 0.0685
TTCGCCACATGGACCGGTTTTCCCGGTAATCCGTATTTGAG (site TTCGCCACTCT) | 0
TTCGCTACATGGACCGGTTTTCCCGGTAATCCGTATTTGGC (site TTCGCTACTGC) | 0
TTCGGATCATGGACCGGTTTTCCCGGTAATCCGTATTTGCT (site TTCGGATCTAG) | 0
TTCGGGCCATGGACCGGTTTTCCCGGTAATCCGTATTTGCC (site TTCGGGCCTGG) | 0
TTCGTATCATGGACCGGTTTTCCCGGTAATCCGTATTTGAC (site CTAGTATCTGT) | 0
TTCGTATCATGGACCGGTTTTCCCGGTAATCCGTATTTGAC (site TTCGTATCTGT) | 0
TTCTGAGCATGGACCGGTTTTCCCGGTAATCCGTATTTGCT (site TTCTGAGCTAG) | 0.802
TTCTTCGCATGGACCGGTTTTCCCGGTAATCCGTATTTGCG (site TTCTTCGCTCG) | 0.00387
TTGAATCCATGGACCGGTTTTCCCGGTAATCCGTATTTGTT (site CGGAATCCTAA) | 0
TTGAATCCATGGACCGGTTTTCCCGGTAATCCGTATTTGTT (site TTGAATCCTAA) | 0.901
TTGAATTCATGGACCGGTTTTCCCGGTAATCCGTATTTGTT (site TTGAATTCTAA) | 0
TTGCACGCATGGACCGGTTTTCCCGGTAATCCGTATTTGGT (site TTGCACGCTAC) | 0.647
TTGCCGTCATGGACCGGTTTTCCCGGTAATCCGTATTTGGT (site TTGCCGTCTAC) | 0.144
TTGCCTTCATGGACCGGTTTTCCCGGTAATCCGTATTTGGT (site TAGCCTTCTAC) | 0.0133
TTGCCTTCATGGACCGGTTTTCCCGGTAATCCGTATTTGGT (site TCGCCTTCTAC) | 0.00778
TTGCCTTCATGGACCGGTTTTCCCGGTAATCCGTATTTGGT (site TGGCCTTCTAC) | 0.0098
TTGCCTTCATGGACCGGTTTTCCCGGTAATCCGTATTTGGT (site TTGCCTTCTAC) | 0.00638
TTGCGGGCATGGACCGGTTTTCCCGGTAATCCGTATTTGGA (site TTGCGGGCTTC) | 0.00996
TTGCGGGCATGGACCGGTTTTCCCGGTAATCCGTATTTGGG (site TTGCGGGCTCC) | 0.00376
